In ChEMBL document CHEMBL3046479, “Preparation and antimicrobial activity evaluation of some new bi- and triheterocyclic azoles” (2013):
Values after ≈ are worked out from the molar mass of the structure shown. Active and inactive are the calls of the source. The rule behind the calls is not given here.

What was measured:
Type in all cases: functional
[1] = test system: Escherichia coli; test: Antimicrobial activity against Escherichia coli ATCC 35218 assessed as growth inhibition after 18-24 hr by broth double microdilution method
[2] = test system: Mycolicibacterium smegmatis; test: Antimicrobial activity against Mycobacterium smegmatis ATCC 607 assessed as growth inhibition after 48-72 hr by broth double microdilution method
[3] = test system: Saccharomyces cerevisiae; test: Antimicrobial activity against Saccharomyces cerevisiae RSKK 251 assessed as growth inhibition after 18-24 hr by broth double microdilution method
[4] = test system: Bacillus cereus; test: Antimicrobial activity against Bacillus cereus 709 Roma assessed as growth inhibition after 18-24 hr by broth double microdilution method
[5] = test system: Candida albicans; test: Antimicrobial activity against Candida albicans ATCC 60193 assessed as growth inhibition after 18-24 hr by broth double microdilution method
[6] = test system: Enterococcus faecalis; test: Antimicrobial activity against Enterococcus faecalis ATCC 29212 assessed as growth inhibition after 18-24 hr by broth double microdilution method
[7] = test system: Staphylococcus aureus; test: Antimicrobial activity against Staphylococcus aureus ATCC 25923 assessed as growth inhibition after 18-24 hr by broth double microdilution method
[8] = test system: Listeria monocytogenes; test: Antimicrobial activity against Listeria monocytogenes ATCC 43251 assessed as growth inhibition after 18-24 hr by broth double microdilution method
[9] = test system: Yersinia pseudotuberculosis; test: Antimicrobial activity against Yersinia pseudotuberculosis ATCC 911 assessed as growth inhibition after 18-24 hr by broth double microdilution method
[10] = test system: Pseudomonas aeruginosa; test: Antimicrobial activity against Pseudomonas aeruginosa ATCC 10145 assessed as growth inhibition after 18-24 hr by broth double microdilution method

Row | SMILES | MIC [1] | MIC [2] | MIC [3] | MIC [4] | MIC [5] | MIC [6] | MIC [7] | MIC [8] | MIC [9] | MIC [10]
1 | Cc1nn(CN2CCCCC2)c(=O)n1CCCn1ccnc1 | < 0.12 µg/mL | 3.9 µg/mL (≈ 12.8 µM) | 3.9 µg/mL (≈ 12.8 µM) | < 0.12 µg/mL | 15.6 µg/mL (≈ 51.2 µM) | < 0.12 µg/mL | < 0.12 µg/mL | < 0.12 µg/mL | < 0.12 µg/mL | < 0.12 µg/mL
2 | Cc1nn(-c2ccc(N)cc2F)c(=O)[nH]1 | inactive | 31.3 µg/mL (≈ 150 µM) | 500 µg/mL (≈ 2400 µM) | inactive | 125 µg/mL (≈ 600 µM) | inactive | inactive | inactive | inactive | inactive
3 | Cc1nn(-c2ccc([N+](=O)[O-])cc2F)c(=O)n1CCCn1ccnc1 | inactive | inactive | 500 µg/mL (≈ 1440 µM) | inactive | 500 µg/mL (≈ 1440 µM) | inactive | inactive | inactive | inactive | inactive
4 | Cc1nn(CC(=O)NN)c(=O)n1CCCn1ccnc1 | 125 µg/mL (≈ 448 µM) | 125 µg/mL (≈ 448 µM) | inactive | inactive | inactive | inactive | inactive | inactive | 125 µg/mL (≈ 448 µM) | inactive
5 | CC1(C)S[C@@H]2[C@H](NC(=O)[C@H](N)c3ccccc3)C(=O)N2[C@H]1C(=O)O [AMPICILLIN] |  |  |  | < 1 µg/mL |  | 2 µg/mL (≈ 5.72 µM) | 2 µg/mL (≈ 5.72 µM) | 8 µg/mL (≈ 22.9 µM) | 32 µg/mL (≈ 91.6 µM) | > 128 µg/mL
6 | OC(Cn1cncn1)(Cn1cncn1)c1ccc(F)cc1F [FLUCONAZOLE] |  |  | < 8 µg/mL |  | < 8 µg/mL |  |  |  |  | 
7 | Cc1nn(CC(=O)N/N=c2\sc(-c3ccc(Cl)cc3)cn2-c2ccccc2)c(=O)n1CCCn1ccnc1 | inactive | 39.9 µg/mL (≈ 72.7 µM) | 1000 µg/mL (≈ 1820 µM) |  | 250 µg/mL (≈ 455 µM) | inactive | inactive | inactive | inactive | inactive
8 | CCOC(=O)Cn1nc(C)n(CCCn2ccnc2)c1=O | inactive | inactive | inactive | inactive | 250 µg/mL (≈ 852 µM) | inactive | inactive | inactive |  | inactive
9 | Cc1nn(CNCCN2CCNCC2)c(=O)n1CCCn1ccnc1 | 1.2 µg/mL (≈ 3.44 µM) | 500 µg/mL (≈ 1430 µM) |  | inactive | 125 µg/mL (≈ 359 µM) | inactive | 125 µg/mL (≈ 359 µM) | inactive | 62.5 µg/mL (≈ 179 µM) | inactive
10 | CN[C@@H]1[C@H](O[C@H]2[C@H](O[C@H]3[C@H](O)[C@@H](O)[C@H](N=C(N)N)[C@@H](O)[C@@H]3N=C(N)N)O[C@@H](C)[C@]2(O)C=O)O[C@@H](CO)[C@H](O)[C@H]1O [STREPTOMYCIN] |  | 4 µg/mL (≈ 6.88 µM) |  |  |  |  |  |  |  | 
11 | Cc1n[nH]c(=O)n1CCCn1ccnc1 | inactive | 125 µg/mL (≈ 603 µM) | 1000 µg/mL (≈ 4830 µM) |  | 500 µg/mL (≈ 2410 µM) | inactive | inactive | inactive | inactive | inactive
12 | Cc1nn(-c2ccc(/N=C/c3c(Cl)cccc3Cl)cc2F)c(=O)n1CCCn1ccnc1 |  | 3.9 µg/mL (≈ 8.24 µM) | inactive | inactive | 250 µg/mL (≈ 528 µM) | inactive | inactive | inactive | inactive | inactive
13 | Cc1nn(-c2ccc(NC(=S)NCc3ccccc3)cc2F)c(=O)n1CCCn1ccnc1 | inactive | 250 µg/mL (≈ 537 µM) | 500 µg/mL (≈ 1070 µM) |  | 500 µg/mL (≈ 1070 µM) | inactive | inactive | inactive | inactive | inactive
